According to ChEMBL document CHEMBL1201862, “PubChem BioAssay data set” (2004):
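Values below derive from 48-hour exposures of cells grown in 96-well plates, with endpoints linearly interpolated between the two concentrations bracketing the appropriate inhibition level. At the GI50, growth is halved.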 Active and inactive are the calls of the source. No stated cut-off is given here; in the data, active = GI50 up to about 1.1 µM and inactive = higher.

How the values were obtained:
Experiment in all cases: NCI anticancer screen, dose series, 48 h
NCI/ADR-RES = test system: NCI/ADR-RES
OVCAR-3 = test system: OVCAR-3
SN12C = test system: SN12C
MOLT-4 = test system: MOLT-4
UACC-62 = test system: UACC-62
SK-OV-3 = test system: SK-OV-3
OVCAR-8 = test system: OVCAR-8
786-0 = test system: 786-0
UO-31 = test system: UO-31
TK-10 = test system: TK-10
SNB-75 = test system: SNB-75
DU-145 = test system: DU-145
OVCAR-5 = test system: OVCAR-5
COLO 205 = test system: COLO 205
A549 = test system: A549
Hs-578T = test system: Hs-578T
BT-549 = test system: BT-549
MCF7 = test system: MCF7
SK-MEL-28 = test system: SK-MEL-28
NCI-H226 = test system: NCI-H226
T47D = test system: T47D
M14 = test system: M14
CAKI-1 = test system: CAKI-1
SW-620 = test system: SW-620
CCRF-CEM = test system: CCRF-CEM
SF-295 = test system: SF-295
Malme-3M = test system: Malme-3M
SF-539 = test system: SF-539
RXF 393 = test system: RXF 393
NCI-H522 = test system: NCI-H522
SR = test system: SR
U-251 = test system: U-251
NCI-H23 = test system: NCI-H23
EKVX = test system: EKVX
LOX IMVI = test system: LOX IMVI
PC-3 = test system: PC-3
MDA-N = test system: MDA-N
ACHN = test system: ACHN
OVCAR-4 = test system: OVCAR-4
HT-29 = test system: HT-29
UACC-257 = test system: UACC-257
HCT-116 = test system: HCT-116
SK-MEL-5 = test system: SK-MEL-5
SNB-19 = test system: SNB-19
SF-268 = test system: SF-268
HCT-15 = test system: HCT-15
HL-60 = test system: HL-60
KM12 = test system: KM12
MDA-MB-435 = test system: MDA-MB-435
RPMI-8226 = test system: RPMI-8226
K562 = test system: K562
MDA-MB-231 = test system: MDA-MB-231
NCI-H460 = test system: NCI-H460
HCC 2998 = test system: HCC 2998
HOP-62 = test system: HOP-62
IGROV-1 = test system: IGROV-1
A498 = test system: A498

With N#CC12C(=O)NC(=O)C1(C#N)C1C=CC2CC1 (stereo not given) the GI50 (NCI/ADR-RES) was > 100 µM (inactive), the GI50 (OVCAR-3) was > 100 µM (inactive) and the GI50 (SN12C) was > 100 µM (inactive). The GI50 (MOLT-4) was > 100 µM (inactive), the GI50 (UACC-62) was > 100 µM (inactive) and the GI50 (SK-OV-3) was > 100 µM (inactive). For the same compound, the GI50 (OVCAR-8) was > 100 µM (inactive), the GI50 (786-0) was > 100 µM (inactive) and the GI50 (UO-31) was > 100 µM (inactive). For the same compound, the GI50 (TK-10) was > 100 µM (inactive), the GI50 (SNB-75) was > 100 µM (inactive) and the GI50 (DU-145) was > 100 µM (inactive). For the same compound, the GI50 (OVCAR-5) was > 100 µM (inactive), the GI50 (COLO 205) was > 100 µM (inactive) and the GI50 (A549) was > 100 µM (inactive). For the same compound, the GI50 (Hs-578T) was > 100 µM (inactive), the GI50 (BT-549) was > 100 µM (inactive) and the GI50 (MCF7) was > 100 µM (inactive). For the same compound, the GI50 (SK-MEL-28) was > 100 µM (inactive), the GI50 (NCI-H226) was > 100 µM (inactive) and the GI50 (T47D) was > 100 µM (inactive). The GI50 (M14) was > 100 µM (inactive), the GI50 (CAKI-1) was > 100 µM (inactive) and the GI50 (SW-620) was > 100 µM (inactive). For the same compound, the GI50 (CCRF-CEM) was > 100 µM (inactive), the GI50 (SF-295) was > 100 µM (inactive) and the GI50 (Malme-3M) was > 100 µM (inactive). The GI50 (SF-539) was > 100 µM (inactive), the GI50 (RXF 393) was > 100 µM (inactive) and the GI50 (NCI-H522) was > 100 µM (inactive). The GI50 (SR) was > 100 µM (inactive), the GI50 (U-251) was > 100 µM (inactive) and the GI50 (NCI-H23) was > 100 µM (inactive). For the same compound, the GI50 (EKVX) was > 100 µM (inactive), the GI50 (LOX IMVI) was > 100 µM (inactive) and the GI50 (PC-3) was > 100 µM (inactive). For the same compound, the GI50 (MDA-N) was > 100 µM (inactive), the GI50 (ACHN) was > 100 µM (inactive) and the GI50 (OVCAR-4) was > 100 µM (inactive). The GI50 (HT-29) was > 100 µM (inactive), the GI50 (UACC-257) was > 100 µM (inactive) and the GI50 (HCT-116) was > 100 µM (inactive). For the same compound, the GI50 (SK-MEL-5) was > 100 µM (inactive), the GI50 (SNB-19) was > 100 µM (inactive) and the GI50 (SF-268) was > 100 µM (inactive). For the same compound, the GI50 (HCT-15) was greater than 100 µM, the GI50 (HL-60) was > 100 µM (inactive) and the GI50 (KM12) was > 100 µM (inactive). The GI50 (MDA-MB-435) was > 100 µM (inactive) and the GI50 (RPMI-8226) was > 100 µM (inactive).
With CCN(CC)C(=C(C(Cl)=C(Cl)Cl)[N+](=O)[O-])N(CC)CC the GI50 (NCI/ADR-RES) was 54 µM (inactive), the GI50 (OVCAR-3) was 37.5 µM (inactive) and the GI50 (SN12C) was 93.5 µM (inactive). The GI50 (MOLT-4) was 27.2 µM (inactive), the GI50 (UACC-62) was 49.4 µM (inactive) and the GI50 (SK-OV-3) was > 100 µM (inactive). For the same compound, the GI50 (K562) was 46.5 µM (inactive), the GI50 (OVCAR-8) was > 100 µM (inactive) and the GI50 (786-0) was > 100 µM (inactive). For the same compound, the GI50 (MDA-MB-231) was > 100 µM (inactive), the GI50 (UO-31) was 30.2 µM (inactive) and the GI50 (TK-10) was > 100 µM (inactive). For the same compound, the GI50 (SNB-75) was 22.3 µM (inactive), the GI50 (DU-145) was 62.4 µM (inactive) and the GI50 (OVCAR-5) was > 100 µM (inactive). The GI50 (COLO 205) was > 100 µM (inactive), the GI50 (A549) was > 100 µM (inactive) and the GI50 (NCI-H460) was 55 µM (inactive). For the same compound, the GI50 (Hs-578T) was 24.7 µM (inactive), the GI50 (BT-549) was 83 µM (inactive) and the GI50 (MCF7) was > 100 µM (inactive). The GI50 (SK-MEL-28) was 49.1 µM (inactive), the GI50 (NCI-H226) was > 100 µM (inactive) and the GI50 (T47D) was 61.8 µM (inactive). The GI50 (M14) was 92 µM (inactive), the GI50 (CAKI-1) was 34.8 µM (inactive) and the GI50 (SW-620) was 85.9 µM (inactive). The GI50 (CCRF-CEM) was 30.6 µM (inactive), the GI50 (SF-295) was > 100 µM (inactive) and the GI50 (Malme-3M) was 19.6 µM (inactive). The GI50 (SF-539) was > 100 µM (inactive), the GI50 (RXF 393) was 17.3 µM (inactive) and the GI50 (SR) was 33.7 µM (inactive). For the same compound, the GI50 (HCC 2998) was > 100 µM (inactive), the GI50 (U-251) was > 100 µM (inactive) and the GI50 (NCI-H23) was 24.1 µM (inactive). The GI50 (EKVX) was > 100 µM (inactive), the GI50 (LOX IMVI) was 41 µM (inactive) and the GI50 (PC-3) was > 100 µM (inactive). For the same compound, the GI50 (HOP-62) was > 100 µM (inactive), the GI50 (IGROV-1) was 47.1 µM (inactive) and the GI50 (MDA-N) was 47.1 µM (inactive). For the same compound, the GI50 (ACHN) was 72.6 µM (inactive), the GI50 (OVCAR-4) was > 100 µM (inactive) and the GI50 (HT-29) was > 100 µM (inactive). The GI50 (UACC-257) was 54.6 µM (inactive), the GI50 (A498) was > 100 µM (inactive) and the GI50 (HCT-116) was 87.7 µM (inactive). For the same compound, the GI50 (SK-MEL-5) was > 100 µM (inactive), the GI50 (SNB-19) was 29.6 µM (inactive) and the GI50 (SF-268) was 41 µM (inactive). For the same compound, the GI50 (HCT-15) was 62.2 µM, the GI50 (HL-60) was 29.6 µM (inactive) and the GI50 (KM12) was > 100 µM (inactive). For the same compound, the GI50 (RPMI-8226) was 42.3 µM (inactive).
